Measurements published in patent US20170165294A1, “METHOD AND APPARATUS FOR ADMINISTERING GASES INCLUDING NITRIC OXIDE TO ADDRESS FIBROSIS” (priority 2015, published 2017).
Where two headings read alike, the source gives them in different places.

Key:
[1] = tested on: mice with intratracheal administration of LPS; experiment: LPS-induced lung injury in mice (intratracheal LPS); assay type: in vivo; settings: for lung injury: 2% H2 and/or 20 ppm NO for 3 hours starting at 5 minutes or 3 hours after LPS administration; for pulmonary inflammation / cell apoptosis: H2 and/or NO treatment; for cell apoptosis: pulmonary
NF-κB = experiment: LPS-induced pulmonary NF-κB activation; assay type: in vivo, mice; settings: H2 and/or NO treatment
polymicrobial sepsis = experiment: Polymicrobial sepsis-induced lung injury; assay type: in vivo; settings: H2 and/or NO treatment
Text: However until applicants' discovery, there has not been a successful combination of hydrogen gas with breathing gas using the claimed apparatus and methods. Applicants have discovered that NO's effect as an antioxidant may be enhanced by eliminating highly reactive by-products of NO inhalation such as peroxynitrite, by adding H2 to inhaled NO gas.

myofibroblasts = settings: rat, in vivo; cited from earlier work
rats = settings: inhaled; cited from earlier work
neonatal piglets = settings: cited from earlier work; for lung collagen accumulation: short-term inhaled exposure, neonatal piglets
HIF = settings: cited from earlier work
chrondrocytes = settings: cited from earlier work
[2] = tested on: brain ischemia-reperfusion (I/R); settings: inhaled; oxidative stress induced by focal ischemia-reperfusion; cited from earlier work
neonatal rats = settings: compared with control rats; cited from earlier work

Structure (SMILES) | lung injury [1] | pulmonary inflammation [1] | cell apoptosis [1] | LPS-induced pulmonary early and late NF-κB activation (NF-κB) | lung injury in polymicrobial sepsis (polymicrobial sepsis) | collagen synthesis (myofibroblasts) | fibroblast number and differentiation (myofibroblasts) | survival in high O2 exposure (rats) | lung collagen content after recovery (neonatal piglets; after a 3-day recovery period in RA) | lung collagen accumulation (neonatal piglets) | effect on HIF (HIF; high doses and after 30 minutes) | effect on HIF (HIF; low dose, for 30 minutes, during hypoxia) | generation of hydroxyl radicals and peroxynitrite (chrondrocytes) | brain injury [2] | survival of exposure to >95% O2 (neonatal rats)
[N]=O [NO, nitric oxide] | significantly improved | down-regulated | down-regulated | inhibited | significantly attenuated | inhibiting | reducing | increase survival | significant decline | increases | inhibitory | stimulates |  |  | 
[HH] [H2, hydrogen] | significantly improved | down-regulated | down-regulated | inhibited | significantly attenuated |  |  |  |  |  |  |  | selectively reduce | markedly suppressed | 
O=O [O2, oxygen] |  |  |  |  |  |  |  |  |  | increases |  |  |  |  | 
COC(=O)[C@@H](N)CCCNC(=N)N[N+](=O)[O-] [Nw-nitro-1-arginine methyl ester] |  |  |  |  |  |  |  |  |  |  |  |  |  |  | significantly fewer survived
